The values below come from patent US4751224A, “Treatment of metastasis” (Brown University Research Foundation, priority 1986, dated 1988).

“Also recorded” adds a separate entry of the source. Where two headings read alike, the source gives them in different places.

As usually defined, the inhibition is the share of the control response that was lost under treatment.

In series [1] the test system is B16 amelanotic melanoma cells. The series can be described thus: PGI2 reduction of pulmonary tumor colonization by tail vein injected B16 amelanotic melanoma cells (Honn et al.). Type of series: in vivo, mouse. To be noted: PGI2 (Honn) compared with forskolin (applicant). An excerpt:
Since tumor cell-platelet interactions play a role in tumor metastasis, several laboratories have examined anticoagulants and anti-aggregating agents, such as heparin, warfarin (Hagmar and Norrby, Vol. 5 Int. J. Cancer, pp. 72-84, [1970]; Lione and Bosmann, Vol. 2 Cell Biol. Int. Res., pp. 81-86 [1972]; Hoover and Ketcham, Vol. 35 Cancer, pp. 5-14 [1975]); aspirin (Gasic et al., Lancet II, pp. 932-933 [1972]; Wood and Hilgard, Lancet II, pp. 1416-1416 [1972]; Hilgard et al., Vol. 86 Z. Krebsforsch., pp. 243-250 [1976]) and dipyridamole (Hilgard in Interaction of Platelets and Tumor Cells, pp. 143-158, Jameson [ed.] [1982]; Ambrus et al. in Platelets: A Multidisciplinary Approach, pp. 467-48, de Gaetano [ed.] [1982]) to reduce the incidence of tumor metastasis without treating the tumor per se in experimental animal models. However, the results of many of these studies were inconclusive.

The test system of series [2] is platelet aggregation. The series can be described thus: inhibition of platelet aggregation in vitro. Type of series: cell-based, human. To be noted: molar basis, PGI2 compared to forskolin.
The subject of series [3] is B16 amelanotic melanoma cells. The note with it: cited from earlier work.
In series [4] the test system is human platelet aggregation induced by B16-F10 melanoma cells. As to the kind of experiment: B16-F10 melanoma cell-induced human platelet aggregation in vitro (light transmission in platelet-rich plasma). Type of series: cell-based. As to the method: A mouse melanoma subline, B16-F10, (highly metastatic to the lungs) was obtained from EG & G Mason Research Institute, Worcester, MA, and adapted to growth in cell culture. The cultured cells were harvested by 1 min of trypsinization (0.25% trypsin-0.1% EDTA) or with the use of a rubber policeman, washed gently three times with Hank's balanced salts solution (HBBS, free of Ca^++ and Mg^++). […] Freshly drawn whole blood from healthy adult human donors was anticoagulated with heparin (5 units/ml). […] Platelet-rich plasma (PRP) was separated by centrifugation of the whole blood and platelet aggregation was measured in PRP by recording the increase in light transmission after the addition of the tumor cells.
Washed B16-F10 cell suspensions (2×10^7 /ml) were treated with potato apyrase (1 unit/ml) for about 5 min to degrade exogenous adenine nucleotides. Fifty microliters of the cell suspension was then added to the platelet-rich plasma after an incubation of 5 min with (A) 5 microliters DMSO (10% in saline) (Control) or (B) 5 microliters forskolin (200 micro Molars in DMSO 10% in saline). Final concentration of forskolin in PRP (500 microliters) was 2 micromolars.
The in vitro experimental procedure of Example I above was repeated using a combination of forskolin and oxagrelate. In this example the cell suspension was added to platelet-rich plasma incubated with a mixture of forskolin and oxagrelate.

Another series deals with B16-F10 melanoma cells. As to the kind of experiment: pulmonary tumor colonization after tail vein injection of B16-F10 cells. The format is in vivo, mouse (C57BL/6). As to the method:
(§1) Washed B16-F10 tumor cells (2 or 3×10^5) in 100 microliters Hanks balanced salts solution were injected from the tail vein 60 min (Exp. 1) or 30 min (Exp. 2, 3) after i.p. injection of 200 microliters DMSO (20 percent in saline) in control group; or forskolin (5 mM) prepared in DMSO (100 percent) and diluted to 1 mM with saline just before injection. The mice were sacrificed after 9 days (Exp. 1) or 14 days (Exp. 2, 3) and the lungs removed for examination. The tumor foci were counted with the help of a dissecting microscope.
The in vivo experimental procedure of Example II above was also repeated using a combination of forskolin and oxagrelate.

Series [5] has as its system mice. The series can be described thus: overt toxicity observation in mice after i.p. administration. The format is in vivo, mouse (C57BL/6). The note with it: 82 micrograms/mouse. How it is done:
as §1, with “microscope. […] FIG. 2 presents typical specimens of lungs from untreated and forskolin-treated mice of experiments 2 and 3.” for “microscope.”

Series [6] concerns mice. To be noted: cited from earlier work.
Series [7] has as its system membrane adenylate cyclase. The note with it: human platelets, via stimulation of membrane adenylate cyclase; cited from earlier work.
Series [8] has as its system platelet aggregation. The note with it: induced by a wide variety of aggregation stimulators; cited from earlier work.

On to `CCCCC[C@H](O)/C=C/[C@@H]1[C@H]2C/C(=C/CCCC(=O)O)O[C@H]2C[C@H]1O` [PGI2, prostacyclin], for which, in series [1], the “potency as inhibitor of pulmonary tumor metastasis, PGI2 versus forskolin” value is reported as “similar”. Besides, in the series with platelet aggregation [2], the “potency in inhibiting platelet aggregation in vitro relative to forskolin” value is recorded as “several hundred-fold more potent”. Also, the “decrease in pulmonary tumor foci” value in series [3] (PGI2 50-200 micrograms/mouse (Honn)) is on record as “greater than 50%”. In addition, the “pulmonary tumor colonization” value in [3] (PGI2, i.v. injection (Honn et al. 1981)) is recorded as “reduces pulmonary tumor colonization”.
For `CCOC(=O)c1c(C)cc2c(CO)nnc(O)c2c1C` [oxagrelate], the inhibition at 20 µM in series [4] (Homo sapiens, B16-F10, oxagrelate 20 micromolar alone, read-out: inhibition of tumor cell-induced platelet aggregation) stood at 20%.
For the compound `C=C[C@@]1(C)CC(=O)[C@]2(O)[C@@]3(C)[C@@H](O)CCC(C)(C)[C@@H]3[C@H](O)[C@H](OC(C)=O)[C@@]2(C)O1` [forskolin, 7 beta-acetoxy-8,13-epoxy-1 alpha,6 beta,9 alpha trihydroxy-labd-14-en-11-one], in [1], the “potency as inhibitor of pulmonary tumor metastasis, PGI2 versus forskolin” value was “similar”. In addition, the “Median number of pulmonary tumor foci” value was 3.1 in the series on B16-F10 melanoma cells (Experiment 1, 2×10^5 cells/mouse, i.p. 60 min before, 9 days, control median 189); 1 in the series with B16-F10 melanoma cells (Experiment 2, 3×10^5 cells/mouse, i.p. 30 min before, 14 days, control median 210); 149.5 with B16-F10 melanoma cells (Experiment 3, 3×10^5 cells/mouse, i.p. 30 min before, 14 days, control median >600 (estimated)). Moreover, in the series with B16-F10 melanoma cells (Experiment 3, 3×10^5 cells/mouse, i.p. 30 min before, 14 days, mice about 5 weeks old, control >600 (estimated)), the “No. of pulmonary tumor foci (per mouse)” value is given as 219,250,281. In addition, in the series on B16-F10 melanoma cells (experiments 2 and 3, compared with untreated mice), the “appearance of tumor foci (dissecting microscope)” value was “smaller and more superficial”. Moreover, the “direct effect on melanoma cells” value in the series with B16-F10 melanoma cells (forskolin i.p. prior to tail vein injection of cells) is given as “without effecting the melanoma cells directly”. In addition, the “overt signs of toxicity” value in the series on mice [5] is given as “No overt signs of toxicity”. The “LD 50” value is 105 mg/kg with mice [6] (i.p.) and 3,100 mg/kg in the series on mice [6] (per OS). Moreover, the “increase of intracellular concentration of cyclic AMP” value in series [7] is given as “several-fold”. The “inhibition of human platelet aggregation” value in the series with platelet aggregation [8] is given as “blocks human platelet aggregation”. Moreover, the inhibition at 0.4 µM in series [4] (Homo sapiens, B16-F10, forskolin 0.4 micromolar alone, read-out: inhibition of tumor cell-induced platelet aggregation) came out at 20%. Besides, in series [4] (forskolin 2 micromolar, 5 min preincubation of PRP, B16-F10 2×10^6/ml), the “melanoma cell-induced human platelet aggregation, inhibition” value is listed as “strongly inhibits; also recorded: strongly blocked”. In [4] (forskolin combined with 2-fluoroadenosine (F-Ado)), the “in vitro inhibitory effect in combination with 2-fluoroadenosine” value was “potentiated”. Besides, the “in vitro inhibitory effect in combination with prostaglandin E” value in [4] (forskolin combined with prostaglandin E) is recorded as “potentiated”.
